Source: article PMC6217552, “Refining the structure−activity relationships of 2-phenylcyclopropane carboxylic acids as inhibitors of O-acetylserine sulfhydrylase isoforms” (Journal of Enzyme Inhibition and Medicinal Chemistry, 2018)
“And” between values parts separate entries of the source, which are not always exact repeats. Identical values can stand only once. Like-named read-outs stand apart in the source and are kept apart here.

Experiments:
[1] = biological target: T1, StOASS-A (Salmonella typhimurium, UniProt P0A1E3); experiment: Direct fluorimetric titration of PLP cofactor fluorescence (dissociation constant); type: binding, Salmonella enterica serovar Typhimurium; settings: 100 mM HEPES pH 7.0, 1% DMSO, 20 °C; read-out: OASS-A Kd
T1 construct: made in house; host or cells: E. coli
Protocol: (§1) StOASS-A and StOASS-B, expressed in E. coli, were purified by metal affinity chromatography as described previously. Proteins were more that 95% pure based on SDS-PAGE analysis (data not shown).
(§2) Ligand affinity was measured by direct fluorimetric titrations, monitoring the fluorescence emission spectrum of cofactor PLP upon excitation at 412 nm. 0.1–1 µM OASS was titrated by increasing concentrations of ligand in 100 mM HEPES pH 7.0, 1% DMSO, at 20 °C. The dependence of fluorescence emission intensity on the concentration of compound was fitted to a binding isotherm: I=I0+ΔI·[ligand]/Kd+[ligand] where, I is the fluorescence emission intensity at a given ligand concentration, I 0 is the fluorescence emission intensity in the absence of ligand, ΔI is the amplitude and K d is the dissociation constant. When the K d was lower than the concentration of the protein used in the assay, the dependence of the fluoresecnce emission intensity on ligand concentration was fitted to a quadratic equation that describes tight binding. The fluorescence competitive binding assay, described elsewhere, was used to evaluate whether compounds bind at the active site of the enzyme or to an allosteric site. The assay is based on the formation of a low-affinity, highly fluorescent complex between OASS and 1-ethylcyclopropane-1,2-dicarboxylic acid. Binding of a higher affinity compound to the active site displaces 1-ethylcyclopropane-1,2-dicarboxylic acid and leads to a decrease in the fluorescence emission intensity.

[2] = biological target: T2, StOASS-B (Salmonella typhimurium, UniProt P29848); experiment: as above; type: binding
T2 construct: made in house; host or cells: E. coli
T2 sequence (P29848 1-303): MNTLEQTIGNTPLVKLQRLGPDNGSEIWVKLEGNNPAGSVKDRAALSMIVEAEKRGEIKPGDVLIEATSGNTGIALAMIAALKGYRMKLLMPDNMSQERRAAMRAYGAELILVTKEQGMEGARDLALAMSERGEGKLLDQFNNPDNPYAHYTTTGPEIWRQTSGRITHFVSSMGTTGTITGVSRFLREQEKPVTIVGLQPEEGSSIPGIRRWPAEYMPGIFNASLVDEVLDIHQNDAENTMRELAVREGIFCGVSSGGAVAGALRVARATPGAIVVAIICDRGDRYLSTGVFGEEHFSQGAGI
Protocol: as §1, §2

[3] = system: Escherichia coli ATCC25922; experiment: Minimal inhibitory concentration (CLSI) in medium with limiting cysteine; type: cell-based; settings: E. coli ATCC25922, medium with limiting cysteine; data not shown
Protocol: Minimal inhibitory concentration assays were performed according to the CLSI guidelines (Clinical and Laboratory Standards Institute; Performance Standards for Antimicrobial Susceptibility Testing; Twenty-Fourth Informational Supplement; CLSI document M100-S24, CLSI; 2014.). The compounds were dissolved in DMSO to obtain a stock solution 100-fold more concentrated than the desired higher concentration and then 10 serial dilutions were performed. One microliter of each dilution was transferred to the microtiter plate.
Escherichia coli ATCC25922 was grown until log phase on liquid Mueller–Hinton broth at 37 °C in a shaker at 225 rpm. Bacterial suspension was then centrifuged at 2500 rpm for 15 min and diluted with phosphate buffer to obtain a solution with a turbidity of about 0.5 McFarland. Bacterial suspension was further diluted (1:100) with fresh LB 20%. Fifty microliters of the bacterial suspension containing 10^6 CFU/mL were inoculated into each well, to obtain a final concentration of 5 × 10^5 CFU/mL. Each plate contained growth control wells and sterility check wells.
We investigated the ability of the new set of compounds to interfere with bacterial growth.

[4] = biological target: T2, StOASS-B; experiment: Steady-state enzyme activity assay, discontinuous ninhydrin cysteine determination; type: biochemical
Protocol: as §1
(§3) Enzyme activity under steady-state conditions was measured by a discontinuous method as described previously. Briefly, the reaction was carried out in 100 mM HEPES pH 7.0 in the presence of 6 nM OASS, 60 nM BSA to prevent enzyme adhesion to tube wall, 1 mM OAS (equal to the K m value of this subsrate), 0.6 mM Na2S (a saturating concentration), 1% DMSO and variable concentrations of inhibitor. Reaction was stopped at time intervals by the addition of acetic acid and concentration of cysteine was determined by a modification of the ninhydrin assay. The fractional velocity as a function of inhibitor concentration was determined and IC50 was calculated by the following equation: vi/v0=1/1+(I/IC50) where, v 0 is the reaction velocity in the absence of inhibitor and v i is reaction velocity in the presence of inhibitor at concentration [I].
(§4) For a competitive inhibitor against OAS the IC50 measured under these conditions is about 2⋅K d.

[5] = biological target: T1, StOASS-A; experiment: as above; type: biochemical, Salmonella enterica serovar Typhimurium; settings: 1 mM OAS, 0.6 mM Na2S, 6 nM OASS, 100 mM HEPES pH 7.0, 1% DMSO
Protocol: as §1, §3, §4

[6] = system: E.coli; set-up: method as in manuscript in preparation; settings: ref manuscript in preparation, cited from earlier work

T1 sequence (P0A1E3 whole entry): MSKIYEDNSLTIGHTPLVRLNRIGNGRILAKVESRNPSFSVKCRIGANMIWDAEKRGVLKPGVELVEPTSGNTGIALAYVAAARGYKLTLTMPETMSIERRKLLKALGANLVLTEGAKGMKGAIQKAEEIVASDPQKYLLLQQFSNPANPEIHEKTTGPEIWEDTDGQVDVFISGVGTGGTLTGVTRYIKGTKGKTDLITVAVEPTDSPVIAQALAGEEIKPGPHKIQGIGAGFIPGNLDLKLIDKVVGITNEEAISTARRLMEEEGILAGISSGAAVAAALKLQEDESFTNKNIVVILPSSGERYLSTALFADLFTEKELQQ

Row | Compound | Kd [1] | Kd [2] | IC50 [4] | IC50 [5] | further results
1 | 1-(4-methylbenzyl)-2-(pyridin-4-yl)cyclopropane-1-carboxylic acid [Compound 5] | 0.4 ± 0.1 µM |  |  |  | Kd ([2]; 100 mM HEPES pH 7.0, 1% DMSO, 20 °C, read-out: OASS-B Kd): 6.1 ± 0.5 µM; Interference with bacterial growth (MIC) [3]: none of the synthesised compounds was able to interfere significantly with bacterial growth
2 | Cc1ccc(CC2(C(=O)O)CC2c2ccc([N+](=O)[O-])cc2)cc1 (centres unmarked) [Compound 8, 1-(4-methylbenzyl)-2-(4-nitrophenyl)cyclopropane-1-carboxylic acid] | 61 ± 6 µM | 145 ± 2 µM |  |  | 
3 | Cc1ccc(CC2(C(=O)O)CC2c2ccc(CNC(C)C)cc2)cc1 (centres unmarked) [Compound 10, 2-(4-((isopropylamino)methyl)phenyl)-1-(4-methylbenzyl)cyclopropane-1-carboxylic acid] | 155 ± 5 µM |  |  |  | 
4 | Cc1ccc(CC2(C(=O)O)CC2c2ccc(N)cc2)cc1 (centres unmarked) [Compound 12, 2-(4-aminophenyl)-1-(4-methylbenzyl)cyclopropane-1-carboxylic acid] | 1.4 ± 0.3 µM | 5.7 ± 0.7 µM |  |  | Interference with bacterial growth (MIC) [3]: none of the synthesised compounds was able to interfere significantly with bacterial growth
5 | Cc1ccc(C[C@]2(C(=O)N(C)C3CCOCC3)C[C@H]2c2ccccc2)cc1 [Compound 16, (1R,2S)-1-N-methyl-1-(4-methylbenzyl)-2-phenyl-N-(tetrahydro-2H-pyran-4-yl)cyclopropane-1-carboxamide] |  |  | 137 ± 10 µM | 17.2 µM and 17 µM | Interference with bacterial growth (MIC) [3]: none of the synthesised compounds was able to interfere significantly with bacterial growth
6 | CCN1CCCC1CNC(=O)[C@@]1(Cc2ccc(C)cc2)C[C@H]1c1ccccc1 (stereo partly drawn) [Compound 17, (1R,2S)-1-N-((1-ethylpyrrolidin-2-yl)methyl)-1-(4-methylbenzyl)-2-phenylcyclopropane-1-carboxamide] |  |  | > 100 µM | > 100 µM | 
7 | Cc1ccc(C[C@]2(C(=O)NCc3ccccc3)C[C@H]2c2ccccc2)cc1 [Compound 18, (1R,2S)-1-N-benzyl-1-(4-methylbenzyl)-2-phenylcyclopropane-1-carboxamide] |  |  |  | > 100 µM | IC50 ([4]; read-out: OASS-B IC50, 1 mM OAS, 0.6 mM Na2S, 6 nM OASS, 100 mM HEPES pH 7.0, 1% DMSO): > 100 µM
8 | Cc1ccc(C[C@]2(C(=O)NCc3cccs3)C[C@H]2c2ccccc2)cc1 [Compound 19, (1R,2S)-1-(4-methylbenzyl)-2-phenyl-N-(thiophen-2-ylmethyl)cyclopropane-1-carboxamide] |  |  | > 100 µM | > 100 µM | 
9 | Cc1ccc(C[C@]2(C(=O)NCc3nccn3C)C[C@H]2c2ccccc2)cc1 [Compound 20, (1R,2S)-1-N-((1-methyl-1H-imidazol-2-yl)methyl)-1-(4-methylbenzyl)-2-phenylcyclopropane-1-carboxamide] |  |  | > 100 µM | > 100 µM | 
10 | C#CCNC(=O)[C@@]1(Cc2ccc(C)cc2)C[C@H]1c1ccccc1 [Compound 21, (1R,2S)-1-(4-methylbenzyl)-2-phenyl-N-(prop-2-yn-1-yl)cyclopropane-1-carboxamide] |  |  | > 100 µM | > 100 µM | 
11 | Cc1ccc(C[C@]2(C(=O)NCC3CCCO3)C[C@H]2c2ccccc2)cc1 (stereo partly drawn) [Compound 22, (1R,2S)-1-(4-methylbenzyl)-2-phenyl-N-((tetrahydrofuran-2-yl)methyl)cyclopropane-1-carboxamide] |  |  | > 100 µM | > 100 µM | 
12 | N#C[C@@]1(Cc2ccccc2)C[C@H]1c1ccccc1 [Compound 28, (1R,2S)-1-benzyl-2-phenylcyclopropanecarbonitrile] |  |  |  | > 250 µM | 
13 | c1ccc(C[C@]2(c3nnn[nH]3)C[C@H]2c2ccccc2)cc1 [Compound 29, (1R,2S)-5-(1-benzyl-2-phenylcyclopropyl)-1H-tetrazole] | 90 ± 14 µM |  |  |  | 
14 | O=C(O)C1(Cc2ccncc2)CC1c1ccccc1 (centres unmarked) [Compound 33, 2-phenyl-1-(pyridin-4-ylmethyl)cyclopropane-1-carboxylic acid] | 24 ± 2 µM | 275 ± 42 µM |  |  | Interference with bacterial growth (MIC) [3]: none of the synthesised compounds was able to interfere significantly with bacterial growth
15 | O=C(O)C1(Cn2ccnc2)CC1c1ccccc1 (centres unmarked) [Compound 47, 1-((1H-imidazol-1-yl)methyl)-2-phenylcyclopropane-1-carboxylic acid] | 7.6 ± 0.5 µM | 397 ± 42 µM |  |  | 
16 | O=C(O)C1(Cn2cccn2)CC1c1ccccc1 (centres unmarked) [Compound 48, 1-((1H-pyrazol-1-yl)methyl)-2-phenylcyclopropane-1-carboxylic acid] | 1.5 ± 0.2 µM | 96 ± 7 µM |  |  | 
17 | O=C(O)C1(Cn2cccc2)CC1c1ccccc1 (centres unmarked) [Compound 49, 1-((1H-pyrrol-1-yl)methyl)-2-phenylcyclopropane-1-carboxylic acid] | 0.5 ± 0.1 µM | 22 ± 2 µM |  |  | 
18 | O=C(O)C1(Cn2cncn2)CC1c1ccccc1 (centres unmarked) [Compound 50, 1-((1H-1,2,4-triazol-1-yl)methyl)-2-phenylcyclopropane-1-carboxylic acid] | 18 ± 5 µM | 250 ± 14 µM |  |  | 
19 | Cc1ccc(C[C@@]2(C(=O)O)C[C@H]2c2ccccc2)cc1 [II, reference compound] | 0.03 ± 0.01 µM | 0.5 ± 0.1 µM |  |  | Inhibitory activity on cell growth ([6]; E.coli, minimal medium): failed to show appreciable inhibitory activity on cell growth; MIC with permeabilizing agent ([6]; co-administration of sub-lethal concentrations of polymyxin B nonapeptide (PMBN)): led to a measurable MIC
